This passage reports EC50 results from patent US11116760B2 (Gilead Sciences, Inc., priority 2018, dated 2021).

This experiment concerns the target α4β7 integrin (Homo sapiens (Human), UniProt P13612+P26010). The experiment is described as follows: α4β7 Integrin Cell Capture Assay. It counts as cell-based. Particulars: Table 1; capture of α4β7 expressing RPM18866 cells on MadCAM-1 extracellular domain-coated plate. Here is the method: α4β7 Integrin Cell Capture Assay
The potency of inhibitors in preventing α4β7 integrin interaction with MadCAM-1 was measured by monitoring the capture of α4β7 integrin expressing cells on a recombinant MadCAM-1 extracellular domain-coated plate. […] The plates were then washed with PBS and blocked with 3% BSA for 2 hours before being washed again.
RPM18866 cells were spun down and re-suspended in assay medium (DMEM+0.5% FBS+0.5 mM MnCl2) at a density of 0.5×10^6 cells/mL. […] The plates were incubated at 37° C. for 1 hour. 50 μL of cells were transferred to the blocked, MadCAM-1-coated plates and incubated for 30 minutes at 37° C. […] The plates were incubated for 90 minutes at room temperature. The plates were then washed 3 times with 70 μL of PBS per well and imaged on a Cellomics ArrayScan instrument. The cells that were bound to the plate were counted and plotted against the compound concentration to determine the EC50 of the test compounds.

Chain of α4β7 integrin (P13612 34-1032): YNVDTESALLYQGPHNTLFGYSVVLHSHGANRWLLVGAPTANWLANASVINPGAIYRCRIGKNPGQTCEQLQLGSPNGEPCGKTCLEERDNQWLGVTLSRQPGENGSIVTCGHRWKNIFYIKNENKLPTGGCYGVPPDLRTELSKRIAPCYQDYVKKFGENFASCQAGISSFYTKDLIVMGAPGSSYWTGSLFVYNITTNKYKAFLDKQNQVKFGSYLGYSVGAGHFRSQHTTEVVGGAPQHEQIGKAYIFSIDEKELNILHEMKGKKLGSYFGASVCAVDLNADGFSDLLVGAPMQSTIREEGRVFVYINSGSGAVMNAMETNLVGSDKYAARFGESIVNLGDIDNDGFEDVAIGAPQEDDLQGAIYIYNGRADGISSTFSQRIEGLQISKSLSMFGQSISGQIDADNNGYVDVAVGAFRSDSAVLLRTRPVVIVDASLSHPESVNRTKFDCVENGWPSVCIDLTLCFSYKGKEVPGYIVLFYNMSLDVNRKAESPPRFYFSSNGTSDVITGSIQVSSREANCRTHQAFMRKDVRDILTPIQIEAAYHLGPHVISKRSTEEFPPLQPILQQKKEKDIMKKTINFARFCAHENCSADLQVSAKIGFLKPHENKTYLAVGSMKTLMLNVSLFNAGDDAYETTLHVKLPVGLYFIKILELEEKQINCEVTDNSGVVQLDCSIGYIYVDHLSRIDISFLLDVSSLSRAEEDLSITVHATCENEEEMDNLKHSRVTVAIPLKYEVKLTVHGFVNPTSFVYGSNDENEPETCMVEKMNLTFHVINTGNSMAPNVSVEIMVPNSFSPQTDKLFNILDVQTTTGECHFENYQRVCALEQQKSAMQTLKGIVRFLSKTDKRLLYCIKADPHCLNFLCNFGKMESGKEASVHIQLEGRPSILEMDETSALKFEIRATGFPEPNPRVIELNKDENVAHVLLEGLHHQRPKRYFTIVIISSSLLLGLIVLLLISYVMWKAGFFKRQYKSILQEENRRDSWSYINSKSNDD
Chain of α4β7 integrin (P26010 20-798): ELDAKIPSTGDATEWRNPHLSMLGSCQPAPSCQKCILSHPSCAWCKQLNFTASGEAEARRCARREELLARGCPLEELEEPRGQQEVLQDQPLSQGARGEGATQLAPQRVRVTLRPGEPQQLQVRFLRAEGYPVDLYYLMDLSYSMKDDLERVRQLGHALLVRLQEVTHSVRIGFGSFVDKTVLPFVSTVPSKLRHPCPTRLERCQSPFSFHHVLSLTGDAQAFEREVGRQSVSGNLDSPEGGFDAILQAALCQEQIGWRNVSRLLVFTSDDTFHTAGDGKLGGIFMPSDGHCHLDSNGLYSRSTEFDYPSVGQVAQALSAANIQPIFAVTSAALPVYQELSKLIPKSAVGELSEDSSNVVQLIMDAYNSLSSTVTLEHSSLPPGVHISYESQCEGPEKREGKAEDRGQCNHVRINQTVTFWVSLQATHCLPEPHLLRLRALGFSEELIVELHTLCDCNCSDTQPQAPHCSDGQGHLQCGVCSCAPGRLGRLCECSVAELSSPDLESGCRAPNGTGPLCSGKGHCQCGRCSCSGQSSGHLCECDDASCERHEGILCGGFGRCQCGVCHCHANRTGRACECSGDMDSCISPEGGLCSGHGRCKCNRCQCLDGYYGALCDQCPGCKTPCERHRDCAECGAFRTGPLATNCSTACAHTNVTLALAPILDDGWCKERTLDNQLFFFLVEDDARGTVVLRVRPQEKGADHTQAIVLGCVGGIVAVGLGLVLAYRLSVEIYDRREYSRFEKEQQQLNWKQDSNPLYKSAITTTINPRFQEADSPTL

As a reminder, the EC50 is the concentration that produces a half-maximal response. A higher EC50 goes with a less potent agent. The compound `O=C(N[C@@H](Cc1ccc(-c2ccncn2)c2ncccc12)C(=O)O)c1c(F)cc(NS(=O)(=O)c2ccc(-c3ccnc(F)c3)cc2)cc1F` [Example 56, (S)-2-(2,6-difluoro-4-((4-(2-fluoropyridin-4-yl)phenyl)sulfonamido)benzamido)-3-(8-(pyrimidin-4-yl)quinolin-5-yl)propanoic acid] came in with a concentration giving a half-maximal response (EC50) of 9.1 nM.
Take `O=C(N[C@@H](Cc1ccc(-c2ccc(C(F)(F)F)cn2)c2ncccc12)C(=O)O)c1c(F)cc(NS(=O)(=O)c2ccc(-c3ccnc(F)c3)cc2)cc1F` [Example 57, (S)-2-(2,6-difluoro-4-((4-(2-fluoropyridin-4-yl)phenyl)sulfonamido)benzamido)-3-(8-(5-(trifluoromethyl)pyridin-2-yl)quinolin-5-yl)propanoic acid]: the 50% effective concentration (EC50) amounted to 30 nM.
The figure for `O=C(N[C@@H](Cc1ccc(-c2ncccn2)c2ncccc12)C(=O)O)c1c(F)cc(NS(=O)(=O)c2ccc(-c3ccnc(F)c3)cc2)cc1F` [Example 58, (S)-2-(2,6-difluoro-4-((4-(2-fluoropyridin-4-yl)phenyl)sulfonamido)benzamido)-3-(8-(pyrimidin-2-yl)quinolin-5-yl)propanoic acid] is 2 nM; for `N#Cc1ccccc1-c1ccc(C[C@H](NC(=O)c2c(F)cc(NS(=O)(=O)c3ccc(-c4ccnc(F)c4)cc3)cc2F)C(=O)O)c2cccnc12` [Example 59, (S)-3-(8-(2-cyanophenyl)quinolin-5-yl)-2-(2,6-difluoro-4-((4-(2-fluoropyridin-4-yl)phenyl)sulfonamido)benzamido)propanoic acid] it is 3.2 nM; for `COc1c(F)cccc1-c1ccc(C[C@H](NC(=O)c2c(F)cc(NS(=O)(=O)c3ccc(-c4ccnc(F)c4)cc3)cc2F)C(=O)O)c2cccnc12` [Example 60, (S)-2-(2,6-difluoro-4-((4-(2-fluoropyridin-4-yl)phenyl)sulfonamido)benzamido)-3-(8-(3-fluoro-2-methoxyphenyl)quinolin-5-yl)propanoic acid] it is 3 nM.
The figure for `CS(=O)(=O)c1cc(F)ccc1-c1ccc(C[C@H](NC(=O)c2c(F)cc(NS(=O)(=O)c3ccc(-c4ccnc(F)c4)cc3)cc2F)C(=O)O)c2cccnc12` [Example 61, (S)-2-(2,6-difluoro-4-((4-(2-fluoropyridin-4-yl)phenyl)sulfonamido)benzamido)-3-(8-(4-fluoro-2-(methylsulfonyl)phenyl)quinolin-5-yl)propanoic acid] is 4.2 nM; for `O=C(N[C@@H](Cc1ccc(-c2cccc3c2OCCC3)c2ncccc12)C(=O)O)c1c(F)cc(NS(=O)(=O)c2ccc(-c3ccnc(F)c3)cc2)cc1F` [Example 62, (S)-3-(8-(chroman-8-yl)quinolin-5-yl)-2-(2,6-difluoro-4-((4-(2-fluoropyridin-4-yl)phenyl)sulfonamido)benzamido)propanoic acid] it is 1.8 nM; for `Cc1ccccc1-c1ccc(C[C@H](NC(=O)c2c(F)cc(NS(=O)(=O)c3ccc(-c4ccnc(F)c4)cc3)cc2F)C(=O)O)c2cccnc12` [Example 63, (S)-2-(2,6-difluoro-4-((4-(2-fluoropyridin-4-yl)phenyl)sulfonamido)benzamido)-3-(8-(o-tolyl)quinolin-5-yl)propanoic acid] it is 30.5 nM.
`COc1cccc(C)c1-c1ccc(C[C@H](NC(=O)c2c(F)cc(NS(=O)(=O)c3ccc(-c4ccnc(F)c4)cc3)cc2F)C(=O)O)c2cccnc12` [Example 64, (2S)-2-(2,6-difluoro-4-((4-(2-fluoropyridin-4-yl)phenyl)sulfonamido)benzamido)-3-(8-(2-methoxy-6-methylphenyl)quinolin-5-yl)propanoic acid] yielded an EC50 of 0.8 nM.
The compound `O=C(N[C@@H](Cc1ccc(-c2ccccc2C(F)(F)F)c2ncccc12)C(=O)O)c1c(F)cc(NS(=O)(=O)c2ccc(-c3ccnc(F)c3)cc2)cc1F` [Example 65, (S)-2-(2,6-difluoro-4-((4-(2-fluoropyridin-4-yl)phenyl)sulfonamido)benzamido)-3-(8-(2-(trifluoromethyl)phenyl)quinolin-5-yl)propanoic acid] yielded an EC50 of 8.4 nM.
In turn, `COc1ccc(C(F)(F)F)c(-c2ccc(C[C@H](NC(=O)c3c(Cl)cccc3Cl)C(=O)O)c3cccnc23)n1` [Example 69, (S)-2-(2,6-dichlorobenzamido)-3-(8-(6-methoxy-3-(trifluoromethyl)pyridin-2-yl)quinolin-5-yl)propanoic acid] yielded an EC50 of 28.9 nM.
Compound `COc1cnn(C)c(=O)c1-c1ccc(C[C@H](NC(=O)c2c(F)cccc2F)C(=O)O)c2cccnc12` [Example 70, (S)-2-(2,6-difluorobenzamido)-3-(8-(5-methoxy-2-methyl-3-oxo-2,3-dihydropyridazin-4-yl)quinolin-5-yl)propanoic acid] registered a concentration for a half-maximal effect (EC50) of 10.7 nM.
In turn, `O=C(N[C@@H](Cc1ccc(-c2ncc3ccccc3c2C(F)(F)F)c2ncccc12)C(=O)O)c1c(F)cccc1F` [Example 71, (S)-2-(2,6-difluorobenzamido)-3-(8-(4-(trifluoromethyl)isoquinolin-3-yl)quinolin-5-yl)propanoic acid] gave an EC50 of 9.5 nM.
On to `Cc1cc(C(F)(F)F)c(-c2ccc(C[C@H](NC(=O)c3c(Cl)cccc3Cl)C(=O)O)c3cccnc23)c(=O)n1C` [Example 73, (S)-2-(2,6-dichlorobenzamido)-3-(8-(1,6-dimethyl-2-oxo-4-(trifluoromethyl)-1,2-dihydropyridin-3-yl)quinolin-5-yl)propanoic acid], for which the 50% effective concentration (EC50) is 2.5 nM.
Consider `CC[C@@H](Nc1cc(F)c(C(=O)N[C@@H](Cc2ccc(-c3ccc(C#N)cc3Cl)c3ncccc23)C(=O)O)c(F)c1)C(F)(F)F` [Example 74, (S)-3-(8-(2-chloro-4-cyanophenyl)quinolin-5-yl)-2-(2,6-difluoro-4-(((R)-1,1,1-trifluorobutan-2-yl)amino)benzamido)propanoic acid], for which the EC50 is 13.6 nM.
`N#Cc1ccc(-c2ccc(C[C@H](NC(=O)c3c(F)cc(N4CCCC[C@@H]4C(F)(F)F)cc3F)C(=O)O)c3cccnc23)c(Cl)c1` [Example 75, (S)-3-(8-(2-chloro-4-cyanophenyl)quinolin-5-yl)-2-(2,6-difluoro-4-((R)-2-(trifluoromethyl)piperidin-1-yl)benzamido)propanoic acid] came in with a half-maximal effective concentration (EC50) of 80.4 nM.
In turn, `N#Cc1ccc(-c2ccc(C[C@H](NC(=O)c3c(F)cc(N4CCC[C@@H]4C(F)(F)F)cc3F)C(=O)O)c3cccnc23)c(Cl)c1` [Example 76, (S)-3-(8-(2-chloro-4-cyanophenyl)quinolin-5-yl)-2-(2,6-difluoro-4-((R)-2-(trifluoromethyl)pyrrolidin-1-yl)benzamido)propanoic acid] showed an EC50 of 78.4 nM.
With `N#Cc1ccc(-c2ccc(C[C@H](NC(=O)c3c(F)cc(N4CCNC[C@@H]4C(F)(F)F)cc3F)C(=O)O)c3cccnc23)c(Cl)c1` [Example 77, (S)-3-(8-(2-chloro-4-cyanophenyl)quinolin-5-yl)-2-(2,6-difluoro-4-((R)-2-(trifluoromethyl)piperazin-1-yl)benzamido)propanoic acid], a half-maximal response (EC50) required 90.7 nM.
The compound `N#Cc1ccc(-c2ccc(C[C@H](NC(=O)c3c(F)cc(N4CCC4C(F)(F)F)cc3F)C(=O)O)c3cccnc23)c(Cl)c1` (stereo partly drawn) [Example 78, (2S)-3-(8-(2-chloro-4-cyanophenyl)quinolin-5-yl)-2-(2,6-difluoro-4-(2-(trifluoromethyl)azetidin-1-yl)benzamido)propanoic acid] yielded an EC50 of 134 nM. This EC50 and that of the compound before are within 1.5-fold of each other.
The result for `N#Cc1ccc(-c2ccc(C[C@H](NC(=O)c3c(F)cc(N4CCOCC4)cc3F)C(=O)O)c3cccnc23)c(Cl)c1` [Example 79, (S)-3-(8-(2-chloro-4-cyanophenyl)quinolin-5-yl)-2-(2,6-difluoro-4-morpholinobenzamido)propanoic acid] reads 26.1 nM; that for `N#Cc1ccc(-c2ccc(C[C@H](NC(=O)c3c(F)cc(N4CCS(=O)(=O)CC4)cc3F)C(=O)O)c3cccnc23)c(Cl)c1` [Example 80, (S)-3-(8-(2-chloro-4-cyanophenyl)quinolin-5-yl)-2-(4-(1,1-dioxidothiomorpholino)-2,6-difluorobenzamido)propanoic acid], 18.1 nM.
The compound `N#Cc1ccc(-c2ccc(C[C@H](NC(=O)c3c(F)cc(N4CCOCC4C(F)(F)F)cc3F)C(=O)O)c3cccnc23)c(Cl)c1` (stereo partly shown) [Example 81] gave an EC50 of 6 nM.
The result for `N#Cc1ccc(-c2ccc(C[C@H](NC(=O)c3c(F)cc(N4CCO[C@H](C(F)(F)F)C4)cc3F)C(=O)O)c3cccnc23)c(Cl)c1` [Example 85, (S)-3-(8-(2-chloro-4-cyanophenyl)quinolin-5-yl)-2-(2,6-difluoro-4-((S)-2-(trifluoromethyl)morpholino)benzamido)propanoic acid] reads 25.4 nM; that for `N#Cc1ccc(-c2ccc(C[C@H](NC(=O)c3c(F)cc(N[C@H](c4ccccc4)C(F)(F)F)cc3F)C(=O)O)c3cccnc23)c(Cl)c1` [Example 86, (S)-3-(8-(2-chloro-4-cyanophenyl)quinolin-5-yl)-2-(2,6-difluoro-4-(((R)-2,2,2-trifluoro-1-phenylethyl)amino)benzamido)propanoic acid], 8.3 nM.
`C[C@@H](N(C)c1cc(F)c(C(=O)N[C@@H](Cc2ccc(-c3ccc(C#N)cc3Cl)c3ncccc23)C(=O)O)c(F)c1)C(F)(F)F` [Example 87, (S)-3-(8-(2-chloro-4-cyanophenyl)quinolin-5-yl)-2-(2,6-difluoro-4-(methyl((R)-1,1,1-trifluoropropan-2-yl)amino)benzamido)propanoic acid] had an EC50 of 15 nM.
